Measured values taken from patent publication US20210395696A1, “ISOLATED NASOPHARYNGEAL CARCINOMA CELLS AND DERIVATIVES PREPARED THEREOF” (INSTITUTE FOR MEDICAL RESEARCH, priority 2018, published 2021).

What was measured:
[1] = test system: gfp-luc2-labelled PDX cells (NPC), subcutaneous model; assay: Drug testing in subcutaneous tumour model of gfp-luc2-labelled PDX; format: in vivo, NSG mice; details: 2 mg/kg i.p. weekly for 3 weeks, bioluminescence imaging
Description: (§1) All experiments were performed in accordance with national regulations and were approved by the AC UC of Ministry of Health, Malaysia. NSG mice, 6-8 weeks old were anaesthetized using Ketamine-Xylazine (100 mg/ml and 10 mg/ml).
(§2) To test the effect of drug on tumour growth inhibition, subcutaneous and/or metastatic model were used. For subcutaneous model, 2×10^5 cells of gfp-luc2 cells were resuspended in RPMI and mixed with matrigel at 1:1 ratio and injected into the right flank. For metastatic model, 2×10^5 cells of gfp-luc2 cells were resuspended in 100 μl of RPMI and injected into left ventricle. Weekly bioluminescence imaging (BLI) were carried out to monitor the progress of tumour growth using VIS Spectrum.
(§3) When tumour volume reached to 50-150 mm^3 or once the signal intensity reached 1×10^4 (average radiance, p/sec/cm^2/sr) mice were randomised into control or treatment group. Treatment commenced 35 days post inoculation. Mice were treated with vehicle (0.9% NaCl) or cisplatin (2 mg/kg) via intraperitoneal (i.p.) injection, weekly for 3 weeks. Tumour volume was measured thrice weekly using callipers and BLI was carried out weekly. Mice were observed daily for general wellbeing and tumour burden.

[2] = test system: gfp-luc2-labelled PDX cells (NPC), metastatic model; assay: Drug testing in metastatic tumour model of gfp-luc2-labelled PDX (intra-cardiac injection); format: in vivo, NSG mice; details: metastatic model (left ventricle injection); 2 mg/kg i.p. weekly for 3 weeks; bioluminescence imaging
Description: as §1, §2, §3

N.N.[Cl][Pt][Cl] [cisplatin]
tumour response as measured by the luminescence signals intensity [1]: tumour regression
tumour response as measured by the luminescence signals intensity [2]: tumour regression
